Tests used:
Dnmt3a^KO cells = test: RNA-sequencing of HSPCs treated in vitro with ADP-heptose or H2O for 90 minutes; assay type: cell-based, mouse
[1] = tested on: MAPK signaling in Dnmt3a^−/− HSPCs; test: Immunoblot of MAPK signaling; assay type: cell-based, mouse
Procedure: (A) ALPK1 and TIFA mRNA expression in Dnmt3a^WT and Dnmt3a^KO HSC from the publicly available dataset GSE98191. (B) Immunoblot analysis of HSPCs from WT, Alpk1^KO, Dnmt3a^KO, and Dnmt3a^KO; Alpk1^KO mice stimulated with indicated concentrations of ADP-heptose for 30 minutes to examine MAPK signaling.
Protein concentration was evaluated by bicinchoninic acid (BCA) assay (Pierce, Cat #23225). SDS sample buffer was added to the lysates and the proteins were separated by SDS-polyacrylamide gel electrophoresis, transferred to PVDF or nitrocellulose membranes (BIO-RAD, Cat #1620112), and analyzed by immunoblotting. […] Membranes were visualized using ECL Western Blotting Substrate (Pierce, #32106) or SuperSignal West Femto Substrate (Thermo Scientific, #34096), imaged on a BIO-RAD ChemiDoc Touch Imaging system and analyzed with Image lab software 6.0.1 (Biorad) or Image J (22930834).

## Nc1ncnc2c1ncn2[C@@H]1O[C@H](COP(=O)(O)OP(=O)(O)O[C@@H]2O[C@H]([C@H](O)CO)[C@@H](O)[C@H](O)[C@@H]2O)[C@@H](O)[C@H]1O [ADP-heptose, ADP-D-glycero-β-D-manno-heptose]
Dnmt3a^KO cells; Dnmt3a^−/− compared to WT LSKs
  gene expression changes (global transcriptomic analysis): significant gene expression changes
Dnmt3a^KO cells; gene 2610037D02Rik, Dnmt3a^KO cells
  logFC: −0.596
Dnmt3a^KO cells; gene 5031425F14Rik, Dnmt3a^KO cells
  logFC: 0.6597
Dnmt3a^KO cells; gene 6330549D23Rik, Dnmt3a^KO cells
  logFC: 0.6997
Dnmt3a^KO cells; gene A130077B15Rik, Dnmt3a^KO cells
  logFC: −0.592
Dnmt3a^KO cells; gene AF251705, Dnmt3a^KO cells
  logFC: 0.6212
Dnmt3a^KO cells; gene Adm, Dnmt3a^KO cells
  logFC: 1.598
Dnmt3a^KO cells; gene Afp, Dnmt3a^KO cells
  logFC: 0.7049
Dnmt3a^KO cells; gene Ahrr, Dnmt3a^KO cells
  logFC: 1.585
Dnmt3a^KO cells; gene Angptl2, Dnmt3a^KO cells
  logFC: 0.6418
Dnmt3a^KO cells; gene Avil, Dnmt3a^KO cells
  logFC: 1.557
Dnmt3a^KO cells; gene Baiap2, Dnmt3a^KO cells
  logFC: 0.7135
Dnmt3a^KO cells; gene Baiap2l1, Dnmt3a^KO cells
  logFC: 0.6616
Dnmt3a^KO cells; gene C1qb, Dnmt3a^KO cells
  logFC: 0.6904
Dnmt3a^KO cells; gene C1qc, Dnmt3a^KO cells
  logFC: 0.6327
Dnmt3a^KO cells; gene Carns1, Dnmt3a^KO cells
  logFC: 0.6216
Dnmt3a^KO cells; gene Ccl2, Dnmt3a^KO cells
  logFC: 0.6432
Dnmt3a^KO cells; gene Ccl24, Dnmt3a^KO cells
  logFC: 1.576
Dnmt3a^KO cells; gene Cd28, Dnmt3a^KO cells
  logFC: 0.6845
Dnmt3a^KO cells; gene Cd40, Dnmt3a^KO cells
  logFC: 0.6974
Dnmt3a^KO cells; gene Cd74, Dnmt3a^KO cells
  logFC: 0.6203
Dnmt3a^KO cells; gene Ces1d, Dnmt3a^KO cells
  logFC: 0.5862
Dnmt3a^KO cells; gene Chst10, Dnmt3a^KO cells
  logFC: 0.609
Dnmt3a^KO cells; gene Ciita, Dnmt3a^KO cells
  logFC: 0.6462
Dnmt3a^KO cells; gene Clec10a, Dnmt3a^KO cells
  logFC: 0.615
Dnmt3a^KO cells; gene Col1a1, Dnmt3a^KO cells
  logFC: 0.5944
Dnmt3a^KO cells; gene Col15a1, Dnmt3a^KO cells
  logFC: 0.6093
Dnmt3a^KO cells; gene Cxcl3, Dnmt3a^KO cells
  logFC: 0.6695
Dnmt3a^KO cells; gene Cxcr2, Dnmt3a^KO cells
  logFC: −0.587
Dnmt3a^KO cells; gene Dcstamp, Dnmt3a^KO cells
  logFC: 0.7137
Dnmt3a^KO cells; gene Dnah6, Dnmt3a^KO cells
  logFC: 0.6061
Dnmt3a^KO cells; gene Dqx1, Dnmt3a^KO cells
  logFC: 0.6377
Dnmt3a^KO cells; gene Emp1, Dnmt3a^KO cells
  logFC: 0.6342
Dnmt3a^KO cells; gene Etohi1, Dnmt3a^KO cells
  logFC: −0.586
Dnmt3a^KO cells; gene Fam167a, Dnmt3a^KO cells
  logFC: 0.6175
Dnmt3a^KO cells; gene Fblim1, Dnmt3a^KO cells
  logFC: 0.5971
Dnmt3a^KO cells; gene Flrt2, Dnmt3a^KO cells
  logFC: 0.7192
Dnmt3a^KO cells; gene Gm8369, Dnmt3a^KO cells
  logFC: −0.599
Dnmt3a^KO cells; gene Gm17455, Dnmt3a^KO cells
  logFC: 0.7125
Dnmt3a^KO cells; gene Grap, Dnmt3a^KO cells
  logFC: 0.6793
Dnmt3a^KO cells; gene Grm1, Dnmt3a^KO cells
  logFC: 1.762
Dnmt3a^KO cells; gene Gzmb, Dnmt3a^KO cells
  logFC: 0.674
Dnmt3a^KO cells; gene Gzmc, Dnmt3a^KO cells
  logFC: 1.782
Dnmt3a^KO cells; gene H2-DMb2, Dnmt3a^KO cells
  logFC: 0.6529
Dnmt3a^KO cells; gene H2-Eb1, Dnmt3a^KO cells
  logFC: 0.5954
Dnmt3a^KO cells; gene H2-Eb2, Dnmt3a^KO cells
  logFC: 0.6221
Dnmt3a^KO cells; gene H2-K2, Dnmt3a^KO cells
  logFC: 0.6688
Dnmt3a^KO cells; gene Hic1, Dnmt3a^KO cells
  logFC: 1.783
Dnmt3a^KO cells; gene Hist1h2ag, Dnmt3a^KO cells
  logFC: 0.6273
Dnmt3a^KO cells; gene Hist1h2bc, Dnmt3a^KO cells
  logFC: 0.6716
Dnmt3a^KO cells; gene Hist1h2be, Dnmt3a^KO cells
  logFC: 0.6244
Dnmt3a^KO cells; gene Hist1h2bf, Dnmt3a^KO cells
  logFC: 0.6891
Dnmt3a^KO cells; gene Hist1h2bj, Dnmt3a^KO cells
  logFC: 0.665
Dnmt3a^KO cells; gene Hist1h4d, Dnmt3a^KO cells
  logFC: 0.592
Dnmt3a^KO cells; gene Hyal1, Dnmt3a^KO cells
  logFC: 0.599
Dnmt3a^KO cells; gene Igf2bp2, Dnmt3a^KO cells
  logFC: 0.6643
Dnmt3a^KO cells; gene Il12rb1, Dnmt3a^KO cells
  logFC: 0.6261
Dnmt3a^KO cells; gene Iqcg, Dnmt3a^KO cells
  logFC: 0.6826
Dnmt3a^KO cells; gene Itgb7, Dnmt3a^KO cells
  logFC: 0.6248
Dnmt3a^KO cells; gene Lars2, Dnmt3a^KO cells
  logFC: 0.6326
Dnmt3a^KO cells; gene Lif, Dnmt3a^KO cells
  logFC: 0.6432
Dnmt3a^KO cells; gene Loxl3, Dnmt3a^KO cells
  logFC: 0.5934
Dnmt3a^KO cells; gene Lrrc51, Dnmt3a^KO cells
  logFC: 0.669
Dnmt3a^KO cells; gene Map3k15, Dnmt3a^KO cells
  logFC: 0.7124
Dnmt3a^KO cells; gene Matk, Dnmt3a^KO cells
  logFC: 0.5934
Dnmt3a^KO cells; gene Mir6236, Dnmt3a^KO cells
  logFC: 0.6256
Dnmt3a^KO cells; gene Mmp12, Dnmt3a^KO cells
  logFC: 0.7097
Dnmt3a^KO cells; gene Mrc1, Dnmt3a^KO cells
  logFC: 0.7023
Dnmt3a^KO cells; gene N4bp3, Dnmt3a^KO cells
  logFC: 0.6853
Dnmt3a^KO cells; gene Nqo1, Dnmt3a^KO cells
  logFC: 0.7094
Dnmt3a^KO cells; gene Orm1, Dnmt3a^KO cells
  logFC: −0.598
Dnmt3a^KO cells; gene P2rx3, Dnmt3a^KO cells
  logFC: 0.7048
Dnmt3a^KO cells; gene Pcbp3, Dnmt3a^KO cells
  logFC: 0.6997
Dnmt3a^KO cells; gene Pf4, Dnmt3a^KO cells
  logFC: 0.7165
Dnmt3a^KO cells; gene Phf1, Dnmt3a^KO cells
  logFC: 0.595
Dnmt3a^KO cells; gene Plekhn1, Dnmt3a^KO cells
  logFC: 0.6207
Dnmt3a^KO cells; gene Ppp1r3d, Dnmt3a^KO cells
  logFC: −0.595
Dnmt3a^KO cells; gene Procr, Dnmt3a^KO cells
  logFC: −0.595
Dnmt3a^KO cells; gene Ptgs1, Dnmt3a^KO cells
  logFC: 0.6215
Dnmt3a^KO cells; gene Ptprn, Dnmt3a^KO cells
  logFC: 0.5867
Dnmt3a^KO cells; gene Pvrl1, Dnmt3a^KO cells
  logFC: 0.663
Dnmt3a^KO cells; gene Rap1gap, Dnmt3a^KO cells
  logFC: 0.6406
Dnmt3a^KO cells; gene Retnlg, Dnmt3a^KO cells
  logFC: 0.6829
Dnmt3a^KO cells; gene Rn45s, Dnmt3a^KO cells
  logFC: 0.6912
Dnmt3a^KO cells; gene Rptoros, Dnmt3a^KO cells
  logFC: 0.6692
Dnmt3a^KO cells; gene Scn3a, Dnmt3a^KO cells
  logFC: 1.51
Dnmt3a^KO cells; gene Serpinb2, Dnmt3a^KO cells
  logFC: 0.6945
Dnmt3a^KO cells; gene Slc36a2, Dnmt3a^KO cells
  logFC: 0.7191
Dnmt3a^KO cells; gene Spag1, Dnmt3a^KO cells
  logFC: −0.587
Dnmt3a^KO cells; gene Spry1, Dnmt3a^KO cells
  logFC: −0.595
Dnmt3a^KO cells; gene Srp54b, Dnmt3a^KO cells
  logFC: 1.636
Dnmt3a^KO cells; gene Stfa2l1, Dnmt3a^KO cells
  logFC: −0.599
Dnmt3a^KO cells; gene Tdrkh, Dnmt3a^KO cells
  logFC: 0.5973
Dnmt3a^KO cells; gene Tesc, Dnmt3a^KO cells
  logFC: 0.607
Dnmt3a^KO cells; gene Tjp3, Dnmt3a^KO cells
  logFC: 0.5969
Dnmt3a^KO cells; gene Tlr5, Dnmt3a^KO cells
  logFC: 0.5879
Dnmt3a^KO cells; gene Tpmt, Dnmt3a^KO cells
  logFC: −0.598
Dnmt3a^KO cells; gene Trem2, Dnmt3a^KO cells
  logFC: 0.6257
Dnmt3a^KO cells; gene Trib3, Dnmt3a^KO cells
  logFC: 0.677
Dnmt3a^KO cells; gene Zfp184, Dnmt3a^KO cells
  logFC: −0.594
Dnmt3a^KO cells; gene Zfp784, Dnmt3a^KO cells
  logFC: 0.6147
[1]
  MAPK signaling: did not result in MAPK signaling
